From patent US9302999B2, “Substituted triazoles as herbicides” (E. I. DU PONT DE NEMOURS AND COMPANY, priority 2012, dated 2016)

Columns and labels:
Format in all cases: in vivo
[1] = tested on: barnyardgrass (Echinochloa crus-galli); experiment: Test B flooded paddy: barnyardgrass; conditions: Flood; 250 g ai/ha; applied to paddy water at 2-leaf stage; visually evaluated after 13 to 15 days
Method: (§1) Seeds selected from rice (Oryza sativa), sedge, umbrella (small-flower umbrella sedge Cyperus difformis), ducksalad (Heteranthera limosa), and barnyardgrass (Echinochloa crus-galli) were grown to the 2-leaf stage for testing. At time of treatment, test pots were flooded to 3 cm above the soil surface, treated by application of test compounds directly to the paddy water, and then maintained at that water depth for the duration of the test.
(§2) Treated plants and controls were maintained in a greenhouse for 13 to 15 days, after which time all species were compared to controls and visually evaluated. Plant response ratings, summarized in Table B, are based on a scale of 0 to 100 where 0 is no effect and 100 is complete control. A dash (-) response means no test result.

[2] = tested on: sedge, umbrella (small-flower umbrella sedge Cyperus difformis); experiment: Test B flooded paddy: sedge, umbrella; conditions: Flood; 250 g ai/ha; applied to paddy water at 2-leaf stage; visually evaluated after 13 to 15 days
Method: as §1, §2

[3] = tested on: barnyardgrass (Echinochloa crus-galli); experiment: Test A pre-/postemergence: barnyardgrass
Outline: (§3)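 Visual 0–100 injury ratings (0 no effect, 100 complete control) taken about ten days after treatment, relative to untreated controls. Preemergence treatment was a directed soil spray; postemergence plants were 2–10 cm tall at one- to two-leaf stage. Soil: loam/sand blend.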

corn (Zea mays) = experiment: Test A pre-/postemergence: corn
Outline: as §3

[4] = tested on: morningglory (Ipomoea spp.); experiment: Test A pre-/postemergence: morningglory
Outline: as §3

[5] = tested on: wheat (Triticum aestivum); experiment: Test A pre-/postemergence: wheat
Outline: as §3

[6] = tested on: velvetleaf (Abutilon theophrasti); experiment: Test A pre-/postemergence: velvetleaf
Outline: as §3

[7] = tested on: crabgrass, large (large crabgrass, Digitaria sanguinalis); experiment: Test A pre-/postemergence: crabgrass, large
Outline: as §3

[8] = tested on: ducksalad (Heteranthera limosa); experiment: Test B flooded paddy: ducksalad; conditions: Flood; 250 g ai/ha; applied to paddy water at 2-leaf stage; visually evaluated after 13 to 15 days
Method: as §1, §2

[9] = tested on: pigweed (Amaranthus retroflexus); experiment: Test A pre-/postemergence: pigweed
Outline: as §3

rice (Oryza sativa) [10] = experiment: Test B flooded paddy: rice; conditions: Flood; 250 g ai/ha; applied to paddy water at 2-leaf stage; visually evaluated after 13 to 15 days
Method: as §1, §2

[11] = tested on: foxtail, giant (giant foxtail, Setaria faberii); experiment: Test A pre-/postemergence: foxtail, giant
Outline: as §3

[12] = tested on: sedge, umbrella (small-flower umbrella sedge, Cyperus difformis); experiment: Test C flooded paddy test: sedge, umbrella; conditions: scale 0 to 100 (0 no effect, 100 complete control)
Outline: (§4)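 Visual ratings from 0 (no effect) to 100 (complete control), made against untreated controls 13 to 15 days after treatment, express plant response. Compounds went directly into paddy water over 2-leaf stage plants in pots flooded to 3 cm.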

[13] = tested on: ducksalad (Heteranthera limosa); experiment: Test C flooded paddy test: ducksalad; conditions: scale 0 to 100 (0 no effect, 100 complete control)
Outline: as §4

rice (Oryza sativa) [14] = experiment: Test C flooded paddy test: rice; conditions: scale 0 to 100 (0 no effect, 100 complete control)
Outline: as §4

[15] = tested on: barnyardgrass (Echinochloa crus-galli); experiment: Test C flooded paddy test: barnyardgrass; conditions: scale 0 to 100 (0 no effect, 100 complete control)
Outline: as §4

[16] = Postemergence, 125 g ai/ha, 0 to 100 scale, 0 is no effect, 100 is complete control
[17] = Postemergence, 500 g ai/ha, visual rating on 0 to 100 scale (0 no effect, 100 complete control), approximately ten days
[18] = Preemergence, 125 g ai/ha, 0 to 100 scale (0 no effect, 100 complete control)
[19] = Preemergence, 500 g ai/ha, 0 to 100 scale, 0 is no effect, 100 is complete control
[20] = Flood (flooded paddy test), 250 g ai/ha, visual rating after 13 to 15 days
[21] = Postemergence, 1000 g ai/ha, visual rating on 0 to 100 scale (0 no effect, 100 complete control), approximately ten days
[22] = Preemergence, 1000 g ai/ha, 0 to 100 scale, 0 is no effect, 100 is complete control

Compound: COc1nn(-c2ccc(F)cc2)nc1C(=O)c1ccnc(C(F)(F)F)c1 [Compound 24]
- Plant response rating, Barnyardgrass (0 to 100 scale, 0 is no effect, 100 is complete control) [1]: 0
- Plant response rating, Sedge, Umbrella (0 to 100 scale, 0 is no effect, 100 is complete control) [2]: 0
- Barnyardgrass plant response rating [3, 16]: 0
- Barnyardgrass plant response rating [3, 17]: 20
- Plant response rating, Barnyardgrass [3, 18]: 0
- Plant response rating, Barnyardgrass [3, 19]: 0
- Corn plant response rating (corn (Zea mays); [16]): 10
- Corn plant response rating (corn (Zea mays); [17]): 20
- Plant response rating, Corn (corn (Zea mays); [18]): 0
- Plant response rating, Corn (corn (Zea mays); [19]): 0
- Morningglory plant response rating [4, 16]: 20
- Morningglory plant response rating [4, 17]: 20
- Plant response rating, Morningglory [4, 18]: 0
- Plant response rating, Morningglory [4, 19]: 0
- Wheat plant response rating [5, 16]: 10
- Wheat plant response rating [5, 17]: 10
- Plant response rating, Wheat [5, 18]: 0
- Plant response rating, Wheat [5, 19]: 0
- Velvetleaf plant response rating [6, 16]: 20
- Velvetleaf plant response rating [6, 17]: 20
- Plant response rating, Velvetleaf [6, 18]: 0
- Plant response rating, Velvetleaf [6, 19]: 0
- Crabgrass, Large plant response rating [7, 16]: 10
- Crabgrass, Large plant response rating [7, 17]: 20
- Plant response rating, Crabgrass, Large [7, 18]: 0
- Plant response rating, Crabgrass, Large [7, 19]: 20
- Plant response rating, Ducksalad (0 to 100 scale, 0 is no effect, 100 is complete control) [8]: 0
- Pigweed plant response rating [9, 16]: 40
- Pigweed plant response rating [9, 17]: 90
- Plant response rating, Pigweed [9, 18]: 0
- Plant response rating, Pigweed [9, 19]: 20
- Plant response rating, Rice (0 to 100 scale, 0 is no effect, 100 is complete control) (rice (Oryza sativa) [10]): 0
- Foxtail, Giant plant response rating [11, 16]: 10
- Foxtail, Giant plant response rating [11, 17]: 20
- Plant response rating, Foxtail, Giant [11, 18]: 20
- Plant response rating, Foxtail, Giant [11, 19]: 70

Compound: CCc1nn(-c2ccc(C(F)(F)F)cc2)nc1Cn1cnc(C(F)(F)F)n1 [Compound 130]
- Plant response rating, Sedge, Umbrella [12, 20]: 75
- Plant response rating, Sedge, Umbrella ([12]; Flood, 62 g ai/ha): 30
- Plant response rating, Ducksalad [13, 20]: 20
- Plant response rating, Ducksalad ([13]; Flood, 62 g ai/ha): 0
- Plant response rating, Rice (rice (Oryza sativa) [14]; [20]): 15
- Plant response rating, Rice (rice (Oryza sativa) [14]; Flood, 62 g ai/ha): 0
- Barnyardgrass plant response rating [3, 21]: 50
- Barnyardgrass plant response rating [3, 22]: 50
- Corn plant response rating (corn (Zea mays); [21]): 30
- Corn plant response rating (corn (Zea mays); [22]): 0
- Morningglory plant response rating [4, 21]: 100
- Morningglory plant response rating [4, 22]: 40
- Wheat plant response rating [5, 21]: 30
- Wheat plant response rating [5, 22]: 10
- Plant response rating, Barnyardgrass [15, 20]: 15
- Plant response rating, Barnyardgrass ([15]; Flood, 62 g ai/ha): 0
- Velvetleaf plant response rating [6, 21]: 100
- Velvetleaf plant response rating [6, 22]: 20
- Crabgrass, Large plant response rating [7, 21]: 90
- Crabgrass, Large plant response rating [7, 22]: 90
- Pigweed plant response rating [9, 21]: 100
- Pigweed plant response rating [9, 22]: 90
- Foxtail, Giant plant response rating [11, 21]: 80
- Foxtail, Giant plant response rating [11, 22]: 90

Compound: CCc1nn(-c2ccc(C(F)(F)F)cc2)nc1Cn1nc(C(F)(F)F)cc1C [Compound 131]
- Plant response rating, Sedge, Umbrella [12, 20]: 0
- Plant response rating, Sedge, Umbrella ([12]; Flood, 62 g ai/ha): 0
- Plant response rating, Ducksalad [13, 20]: 20
- Plant response rating, Ducksalad ([13]; Flood, 62 g ai/ha): 0
- Plant response rating, Rice (rice (Oryza sativa) [14]; [20]): 0
- Plant response rating, Rice (rice (Oryza sativa) [14]; Flood, 62 g ai/ha): 0
- Barnyardgrass plant response rating [3, 21]: 30
- Barnyardgrass plant response rating [3, 22]: 20
- Corn plant response rating (corn (Zea mays); [21]): 30
- Corn plant response rating (corn (Zea mays); [22]): 0
- Morningglory plant response rating [4, 21]: 70
- Morningglory plant response rating [4, 22]: 10
- Wheat plant response rating [5, 21]: 0
- Wheat plant response rating [5, 22]: 0
- Plant response rating, Barnyardgrass [15, 20]: 10
- Plant response rating, Barnyardgrass ([15]; Flood, 62 g ai/ha): 0
- Velvetleaf plant response rating [6, 21]: 40
- Velvetleaf plant response rating [6, 22]: 0
- Crabgrass, Large plant response rating [7, 21]: 90
- Crabgrass, Large plant response rating [7, 22]: 90
- Pigweed plant response rating [9, 21]: 100
- Pigweed plant response rating [9, 22]: 90
- Foxtail, Giant plant response rating [11, 21]: 50
- Foxtail, Giant plant response rating [11, 22]: 90
